In patent US6352996B1, “Liposomal prodrugs comprising derivatives of camptothecin and methods of treating cancer using these prodrugs” (priority 1999, dated 2002):
Where two headings read alike, the source gives them in different places.

Assays:
[1] = system: CLO breast carcinoma; test: Human breast carcinoma CLO xenograft in nude mice; format: in vivo; settings: 8 mg/kg intramuscular twice a week, day 55 (FIG. 16)
Source text: Swiss nude mice of the NIH high fertility strain were bred and maintained pathogen-free in a laboratory. (Giovanella, B. C. and Stehlin, J. S. “Heterotransplantation of human malignant tumors in ‘nude’ thymusless mice. I. Breeding and maintenance of ‘nude’ mice.” J. Natl. Cancer Inst. 51: 615-619; 1973.)
Human malignant carcinomas of the colon, breast, lung, ovary, stomach, pancreas, bladder, prostate, osteosarcoma and malignant melanomas were heterotransplanted directly from patients into the nude mice and passaged serially. In particular, the tumors CLO, MUR, CAS, SW 48, SQU and BRO as described in Giovanella, B. C., Stehlin, J. S., Shepard, R. C. and Williams, L. J. “Correlation between response to chemotherapy of human tumors in patients and in nude mice.” Cancer 52: 1146-1152; 1983, tumor SCH as described in Heim, S., Mandahl, N., Arheden, K., Giovanella, B. C., Yim, S. O., Stehlin, J. S., Jr. and Mitebman, F. “Multiple karyotypic abnormalities including structural rearrangements of 11P in cell lines from malignant melanomas.” Cancer Genet. Cytogent, 35:5-20; 1988, and Verschraegen, C., Ciovanella, B. C., Mendoza, J. T., Kozielski, A. J. and Stehlin, J. S., Jr. “Specific organ metastases of human melanoma cells injected into the arterial circulation of nude mice.” Anticancer Res., In Press, and tumor PC-3 as described in Invest. Urol. 17, 16-23, 1979, were used. […]

[2] = Closed lactone form in plasma of mice after intrastomach administration; format: in vivo; settings: after i.s. administration, mouse (FIG. 3)
[3] = system: human tumor xenografts
[4] = system: human malignancies; test: Clinical responses in Phase I clinical trial patients; format: in vivo; settings: in humans
[5] = Closed lactone form in human plasma after oral administration; settings: for % present as closed lactone form in human blood/plasma: after oral administration (FIGS. 2, 4, 5, 7, 8)
[6] = system: human tumor xenografts; settings: in mice; cited from earlier work
[7] = Changes of body weights of mice during the test time period (toxicity); format: in vivo; settings: nude mice
Source text: The preferred derivatives display significant antitumor activity with much lower toxicity than their parent camptothecin, CPT. The animal experimental data for these new derivatives were collected. Camptothecin 20(S) propioniate (where R1 is ethyl and R2 is H) is designated as Prodrug 2 and taken as a example to disclose some in vivo experimental data. FIG. 6 represents the antitumor activity of this compound in different doses against the implanted human breast carcinoma (CLO) in nude mice. The change of body weight of mice is recorded with the time.

[8] = Stability of lactone form in human plasma; format: in vitro ADME; settings: for Percent in plasma (lactone, percent of the initial lactone amount added): 1 μg/ml
Method: CPT or SF6A lactone was added to human plasma (1 μg/ml) and an incubation and lactone determination were made as described in Example 15. The lactone amount at each time-point was detected after removing the carboxylate form, and subsequently was calculated as percent of the initial lactone amount added. The results shown in this Table below were derived from one of the three independent experiments performed using different incubation times. The pattern of quantitation of the lactones was similar in all three experiments.

[9] = system: U-937 cells; test: Growth inhibition of U-937 cells treated with CPT esters; format: cell-based; settings: 0.2 μM, 120 hr, percent of exponential growth of untreated cells (100%), mean of four estimates
Method: Growth inhibition of U-937 cells treated with various CPT esters.
Each identified compound was added to reach a culture of U-937 cell having a final concentration of 0.2 μM. The treatment time was for 120 hr. Growth inhibition in each of the treated cultures was then estimated as a percent of the exponential growth of the cells that was considered 100%. Each estimate was the mean value of four estimates.

[10] = mouse liver homogenate, 2 μg SF6A/ml, 37° C.
Method: Determination of SF6A (Prodrug 2) and CPT in liver homogenate.
Mouse liver was homogenized in 4 volumes of ice-cold 0.15 M KCl with the aid of a Dounce homogenizer, then centrifuged at 15000 G for 10 min to remove particulate material. The supernatant, designated as liver homogenate, was transferred into a capped polypropylene tube, mixed with 2 μg SF6A/ml and incubated in a 37° C. water-bath. At the desired times, samples were removed and mixed with 4 volumes of ice-cold ethanol to precipitate proteins. The samples were stored at −20° C. until all were collected. Following centrifugation at 15000 G for 10 min, the clarified supernatants were subjected to analysis for determination of SF6A and CPT lactones by high pressure liquid chromatography (HPLC). The compounds were detected by fluorescence spectroscopy setting the excitation and emission wavelengths at 347 nm and 418 nm, respectively. CPT and SF6A have characteristic retention times of 3.5 min and 13.5 min, respectively.

Which tumor size [1] does the source give for CC=CC(=O)OC1(CC)C(=O)OCc2c1cc1n(c2=O)Cc2cc3ccccc3nc2-1 (stereo not drawn) [Compound IB, Camptothecin 20-O crotonate] here?
The tumor size was “actually reducing the tumor size”.

What does the source list for CC[C@@]1(O)C(=O)OCc2c1cc1n(c2=O)Cc2cc3c([N+](=O)[O-])cccc3nc2-1 [Example 9NC, 9-nitrocamptothecin, reference compound]?
drug present in the plasma in the closed lactone form [2]: 57%; complete tumor regressions ([3]; in mice): 32/32; complete tumor regressions [4]: 2/32; % present as closed lactone form in human blood/plasma [5]: ~3%; drug present in plasma in the closed lactone form ([5]; oral administration to Phase I clinical trial patients, on average (FIGS. 4 and 5)): ~3%; potency relative to CPT against human tumor xenografts [6]: 2-3 times

For CCC1(OC(=O)C2OC2C)C(=O)OCc2c1cc1n(c2=O)Cc2cc3ccccc3nc2-1 (stereo not drawn) [Compound IC, Camptothecin 20-O-2′, 3′-epoxy-butyrate], which tumor size [1] is on record?
Its tumor size is “stabilize the tumor size after a certain amount of time”.

Which toxicity ([3]; mice) does the source give for CCC(=O)O[C@]1(CC)C(=O)OCc2c1cc1n(c2=O)Cc2cc3ccccc3nc2-1 [Prodrug 2, Camptothecin 20-O-propionate] here?
Its toxicity is “exceptional lack of toxicity, even at enormous doses in mice”.

What about the “antitumor activity against xenografts of human tumors” value ([3]; nude mice) of the same molecule?
The value was “exhibits antitumor activity against human tumor xenografts”.

And the Body weight ([7]; dose 5 mg/kg, day 21)?
Its Body weight is 21/33 gms.

What about the Body weight ([7]; dose 5 mg/kg, day 27) of the same molecule?
The Body weight was 27/33.7 gms.

What about the Body weight ([7]; dose 5 mg/kg, day 34) of the same molecule?
The Body weight was 34/34.3 gms.

What about the Body weight ([7]; dose 5 mg/kg, day 41) of the same molecule?
Its Body weight is 41/33.5 gms.

And the Body weight ([7]; dose 5 mg/kg, day 48)?
The Body weight was 48/32.9 gms.

What about the Body weight ([7]; dose 5 mg/kg, day 56) of the same molecule?
The Body weight was 56/33.2 gms.

What about the Body weight ([7]; dose 6 mg/kg, day 21) of the same molecule?
The Body weight was 21/32.9 gms.

What about the Body weight ([7]; dose 6 mg/kg, day 27) of the same molecule?
The Body weight was 27/33.4 gms.

What about the Body weight ([7]; dose 6 mg/kg, day 34) of the same molecule?
The Body weight was 34/33.8 gms.

What about the Body weight ([7]; dose 6 mg/kg, day 41) of the same molecule?
The Body weight was 41/33.5 gms.

And the Body weight ([7]; dose 6 mg/kg, day 48)?
Its Body weight is 48/34.0 gms.

And the Body weight ([7]; dose 6 mg/kg, day 56)?
The Body weight was 56/32.2 gms.

And the Body weight ([7]; dose 7 mg/kg, day 21)?
Its Body weight is 21/30.8 gms.

What about the Body weight ([7]; dose 7 mg/kg, day 27) of the same molecule?
The Body weight was 27/31.7 gms.

What about the Body weight ([7]; dose 7 mg/kg, day 34) of the same molecule?
The Body weight was 34/30.6 gms.

What about the Body weight ([7]; dose 7 mg/kg, day 41) of the same molecule?
The Body weight was 41/31.1 gms.

What about the Body weight ([7]; dose 7 mg/kg, day 48) of the same molecule?
The Body weight was 48/31.6 gms.

What about the Body weight ([7]; dose 7 mg/kg, day 56) of the same molecule?
Its Body weight is 56/31.5 gms.

And the Body weight ([7]; dose 8 mg/kg, day 21)?
The Body weight was 21/32.9 gms.

What about the Body weight ([7]; dose 8 mg/kg, day 27) of the same molecule?
The Body weight was 27/34.1 gms.

And the Body weight ([7]; dose 8 mg/kg, day 34)?
Its Body weight is 34/34.0 gms.

And the Body weight ([7]; dose 8 mg/kg, day 41)?
Its Body weight is 41/33.4 gms.

And the Body weight ([7]; dose 8 mg/kg, day 48)?
The Body weight was 48/33.9 gms.

What about the Body weight ([7]; dose 8 mg/kg, day 56) of the same molecule?
The Body weight was 56/33.2 gms.

And the “change of body weight of mice during the test time period” value ([7]; doses 5-8 mg/kg)?
Its value is “no losses of mice body weights”.

What about the “% present as closed lactone form in human blood/plasma” value [5] of the same molecule?
The value was 2.8%.

What about the “increase of lactone share over the parent compound” value ([5]; human, oral administration, versus CPT or 9NC) of the same molecule?
The value was “sevenfold”.

And the “Lactone % in Human Plasma” value ([8]; Time 0 Hr)?
Its value is 100%.

And the “Lactone % in Human Plasma” value ([8]; Time 1 Hr)?
The value was 86%.

And the “Lactone % in Human Plasma” value ([8]; Time 2 Hr)?
Its value is 77%.

What about the “Lactone % in Human Plasma” value ([8]; Time 4 Hr) of the same molecule?
Its value is 68%.

And the “Lactone % in Human Plasma” value ([8]; Time 6 Hr)?
The value was 56%.

What about the “time the lactone ring remained intact, versus CPT” value ([8]; human plasma) of the same molecule?
Its value is “much longer”.

What about the “Percent in plasma (lactone, percent of the initial lactone amount added)” value (“Percent in plasma” below) ([8]; human plasma, incubation time 0.0 hr) of the same molecule?
The value was 100.0%.

What about the “Percent in plasma” value ([8]; human plasma, incubation time 1.0 hr) of the same molecule?
The value was 86.0%.

And the “Percent in plasma” value ([8]; human plasma, incubation time 2.0 hr)?
Its value is 77.0%.

And the “Percent in plasma” value ([8]; human plasma, incubation time 4.0 hr)?
Its value is 68.0%.

And the “Percent in plasma” value ([8]; human plasma, incubation time 6.0 hr)?
The value was 56.0%.

And the “Percent in plasma” value ([8]; human plasma, incubation time 27.0 hr)?
Its value is 9.0%.

What about the Growth % [9] of the same molecule?
The Growth % was 31 ± 2%.

What about the “Amount determined: CPT (formed from SF6A)” value (shortened to “Amount determined: CPT”) ([10]; incubation 0 min) of the same molecule?
Its value is 0.00 µg/mL.

And the “Amount determined: SF6A” value ([10]; incubation 0 min)?
The value was 1.95 µg/mL.

And the “Amount determined: CPT” value ([10]; incubation 10 min)?
Its value is 0.00 µg/mL.

And the “Amount determined: SF6A” value ([10]; incubation 10 min)?
Its value is 2.06 µg/mL.

What about the “Amount determined: CPT” value ([10]; incubation 60 min) of the same molecule?
The value was 0.00 µg/mL.

What about the “Amount determined: SF6A” value ([10]; incubation 60 min) of the same molecule?
Its value is 2.05 µg/mL.

And the “Amount determined: CPT” value ([10]; incubation 6 hr)?
Its value is 0.00 µg/mL.

What about the “Amount determined: SF6A” value ([10]; incubation 6 hr) of the same molecule?
Its value is 2.05 µg/mL.

And the “Amount determined: CPT” value ([10]; incubation 24 hr)?
Its value is 0.47 µg/mL.

And the “Amount determined: SF6A” value ([10]; incubation 24 hr)?
The value was 0.96 µg/mL.

And the “Amount determined: CPT” value ([10]; incubation 48 hr)?
Its value is 0.30 µg/mL.

And the “Amount determined: SF6A” value ([10]; incubation 48 hr)?
Its value is 0.90 µg/mL.

Which Growth % [9] does the source give for CC[C@@]1(OC(C)=O)C(=O)OCc2c1cc1n(c2=O)Cc2cc3ccccc3nc2-1 [CPT-acetate] here?
Its Growth % is 92 ± 4%.
